These results are taken from publication PMC9249104 (Nature chemical biology, 2021).

“Also recorded” adds a separate entry of the source. Like-named read-outs stand apart in the source and are kept apart here.

Data set [1] relates to mTORC1 over mTORC2. The data set can be described thus: mTORC1/2 selectivity: potencies for inhibition of 4EBP1 T37/T46. Format: cell-based. To be noted: MDA-MB-468; p4EBP1 T37/T46 vs pAKT S473 potencies.
In data set [2] the test system is 4EBP1 T37/T46 phosphorylation (mTORC1). In words: AlphaLISA/MSD p4EBP1 T37/T46 in MDA-MB-468 cells. The data set is classed as cell-based. Background: Alpha assays give light when donor and acceptor beads are brought close together.
In data set [3] the test system is S6K T389 phosphorylation (mTORC1). In words: AlphaLISA pS6K T389 in MDA-MB-468 cells. The data set is classed as cell-based.
The target in data set [4] is FKBP12 (Homo sapiens, UniProt P62942). The data set can be described thus: TR-FRET competitive binding assay for FKBP12. Background: Time-resolved FRET reads energy transfer from a long-lived donor to a nearby acceptor.
The conditions of data set [5]: mouse, in vivo.
For data set [6], the system named is AKT S473 phosphorylation (mTORC2). The data set can be described thus: AlphaLISA/MSD pAKT S473 in MDA-MB-468 cells. Format: cell-based.
In data set [7] the test system is mTORC1 signaling (p4EBP1 T37/T46). In words: p4EBP1 T37/T46 in parental and FKBP12 knockout NCI-H358 cells. Format: cell-based.
In data set [8] the test system is p4EBP1 T37/T46. In words: FK506 competition, p4EBP1 T37/T46 in MDA-MB-468 cells. The data set is classed as cell-based.
Data set [9] relates to MCF-7 cells. The data set can be described thus: Cell viability. Format: cell-based. To be noted: MCF-7, 72 hours.
In data set [10] the test system is 4EBP1/2 WT and 4EBP1/2 DKO MEFs. In words: Cell growth of E1A/Ras-transformed 4EBP1/2 WT and DKO MEFs. Format: cell-based, mouse. To be noted: 72 hours.
Data set [11] can be described thus: Two-day glucose tolerance test. The data set is classed as in vivo. To be noted: mice, one hour after inhibitor administration.
The nature of data set [12]: MCF-7 subcutaneous xenograft: body weight. To be noted: MCF-7 xenograft mice; bi-steric inhibitors ip once weekly, MLN0128 po daily.
The target of data set [13] is PIK3CD (Homo sapiens, UniProt O00329). The data set can be described thus: KiNativ kinome screen in Ramos cells: PIK3CD. Particulars: read-out: inhibition of PIK3CD.
Data set [14] relates to pAKT S473. In words: Immunoblot of MCF-7 cells overexpressing Myr-AKT or vector control. The data set is classed as cell-based. Particulars: 4 hours; for effect on pAKT S473 in Myr-AKT cells: MCF-7 Myr-AKT cells, BiS-31x up to 100 nM; for effect on pAKT S473 in parental cells: MCF-7 parental cells.
Data set [15] concerns pAKT S473. The data set can be described thus: Immunoblot of MCF-7 and BT474 cells: pAKT S473. The data set is classed as cell-based. To be noted: 10 nM, by 4 hours. (In western blotting, separated proteins are transferred to a membrane and probed.)
The test system of data set [16] is HER3 expression and phosphorylation. The data set can be described thus: Immunoblot of MCF-7 and BT474 cells: HER3. Format: cell-based. Particulars: 10 nM, by 24 hours.
Data set [17] deals with MDA-MB-468 sgGFP and sg4EBP1 cells. The data set can be described thus: Cell viability of MDA-MB-468 sgGFP and sg4EBP1 cells. Format: cell-based. Particulars: for concentration suppressing proliferation: five days.
Data set [18] relates to eIF4F complex formation. The data set can be described thus: In vitro cap-binding affinity assay, MDA-MB-468 sgGFP and sg4EBP1 cells. Format: cell-based. Particulars: 3 nM, 4 and 24 hours, MDA-MB-468 sgGFP cells.
Data set [19] deals with pS6K T389, pAKT S473, cyclin D1. The data set can be described thus: Immunoblot of MDA-MB-468 and MCF-7 sgGFP and sg4EBP1 cells. The data set is classed as cell-based. To be noted: 4 hours.
Data set [20] concerns global protein synthesis. In words: Puromycin incorporation in MCF-7 cells. To be noted: MCF-7, 4 hours. The data set is classed as cell-based.
Data set [21] concerns mTORC1. Particulars: cited from earlier work.
Data set [22] concerns AKT S473 phosphorylation. In words: Immunoblot of PC3 cells, 4 or 24 hours. The data set is classed as cell-based.
Data set [23] relates to mTOR FRB mutation (F2108L). In words: Immunoblot of parental MCF-7 and MCF-7 cells harboring mTOR F2108L. The data set is classed as cell-based. Particulars: MCF-7, four hours.
Data set [24] concerns kinases other than mTOR. The data set can be described thus: KiNativ kinome screen in Ramos cells: kinases other than mTOR. Particulars: 1 µM.

Chain of PIK3CD (O00329 whole entry): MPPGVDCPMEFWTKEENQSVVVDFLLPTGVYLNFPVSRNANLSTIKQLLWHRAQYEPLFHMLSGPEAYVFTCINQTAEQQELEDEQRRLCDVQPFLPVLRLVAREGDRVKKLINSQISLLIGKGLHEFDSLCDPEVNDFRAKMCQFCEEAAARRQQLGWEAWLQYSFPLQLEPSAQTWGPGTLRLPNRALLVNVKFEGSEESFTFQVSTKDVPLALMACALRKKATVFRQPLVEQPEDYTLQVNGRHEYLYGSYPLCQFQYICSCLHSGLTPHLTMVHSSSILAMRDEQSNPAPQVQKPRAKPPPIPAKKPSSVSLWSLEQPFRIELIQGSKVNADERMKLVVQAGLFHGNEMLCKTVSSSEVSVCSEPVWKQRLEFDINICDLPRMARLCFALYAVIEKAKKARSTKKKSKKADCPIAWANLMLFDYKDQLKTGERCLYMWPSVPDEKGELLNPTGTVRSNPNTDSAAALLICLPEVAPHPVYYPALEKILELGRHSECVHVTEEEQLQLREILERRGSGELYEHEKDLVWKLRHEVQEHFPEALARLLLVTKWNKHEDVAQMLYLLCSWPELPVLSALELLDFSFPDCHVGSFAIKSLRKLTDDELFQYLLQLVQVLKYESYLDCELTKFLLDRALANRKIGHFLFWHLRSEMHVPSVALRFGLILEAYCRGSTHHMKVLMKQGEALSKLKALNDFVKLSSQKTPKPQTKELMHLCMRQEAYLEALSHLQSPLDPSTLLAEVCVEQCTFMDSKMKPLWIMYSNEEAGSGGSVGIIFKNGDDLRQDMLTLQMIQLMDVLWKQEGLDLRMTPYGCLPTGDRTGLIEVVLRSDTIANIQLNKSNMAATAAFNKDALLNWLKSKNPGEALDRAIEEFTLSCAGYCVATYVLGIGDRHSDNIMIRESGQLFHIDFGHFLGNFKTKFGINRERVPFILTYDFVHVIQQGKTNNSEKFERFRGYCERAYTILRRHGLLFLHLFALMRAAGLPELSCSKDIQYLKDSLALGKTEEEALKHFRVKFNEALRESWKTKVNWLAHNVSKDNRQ
Chain of PIK3CD (P27986 whole entry partner): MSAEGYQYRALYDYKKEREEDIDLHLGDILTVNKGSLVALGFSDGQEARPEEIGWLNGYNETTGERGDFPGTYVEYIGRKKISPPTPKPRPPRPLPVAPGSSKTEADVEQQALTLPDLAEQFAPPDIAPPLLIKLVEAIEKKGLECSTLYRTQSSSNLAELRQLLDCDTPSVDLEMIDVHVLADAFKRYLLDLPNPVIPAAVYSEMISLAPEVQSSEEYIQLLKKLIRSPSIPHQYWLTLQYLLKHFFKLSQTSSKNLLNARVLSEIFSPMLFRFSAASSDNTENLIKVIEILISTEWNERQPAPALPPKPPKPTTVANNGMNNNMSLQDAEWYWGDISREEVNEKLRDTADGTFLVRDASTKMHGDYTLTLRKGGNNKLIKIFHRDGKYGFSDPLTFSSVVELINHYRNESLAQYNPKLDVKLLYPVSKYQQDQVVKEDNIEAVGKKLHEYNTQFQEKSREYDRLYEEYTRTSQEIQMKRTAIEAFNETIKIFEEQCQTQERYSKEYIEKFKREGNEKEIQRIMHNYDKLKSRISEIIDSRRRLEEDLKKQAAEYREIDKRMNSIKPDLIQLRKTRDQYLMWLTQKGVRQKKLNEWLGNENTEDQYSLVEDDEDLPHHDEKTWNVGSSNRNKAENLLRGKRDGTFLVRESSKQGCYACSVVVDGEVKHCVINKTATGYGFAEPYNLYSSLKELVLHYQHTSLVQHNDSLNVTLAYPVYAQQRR
Chain of FKBP12 (P62942 whole entry): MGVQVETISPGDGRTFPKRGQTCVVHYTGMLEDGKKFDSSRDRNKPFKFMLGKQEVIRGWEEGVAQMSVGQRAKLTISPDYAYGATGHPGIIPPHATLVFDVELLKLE

In the case of RMC-4627, the “selectivity for mTORC1 over mTORC2” value in data set [1] was determined as 13 fold. Further, in [2], the “effect on p4EBP1 T37/T46” value is listed as “equipotent”. The “effect on pS6K T389” value in [3] is listed as “equipotent”. In addition, in data set [4], the “affinity for FKBP12 relative to rapamycin (lower)” value is reported as “approximately 3 fold”. Moreover, in data set [5], the “maximum loss in body weight” value was 10%.
Broadly, the inhibition is the change of the read-out against control, counted positive when it falls. On to `CC(C)n1nc(-c2ccc3oc(N)nc3c2)c2c(N)ncnc21` [MLN0128], for which the “effect on p4EBP1 T37/T46” value in data set [2] was “inhibited”. Moreover, the “effect on pAKT S473” value in [6] was “inhibited”. The “impact of FKBP12 knockout on inhibitory activity” value in data set [7] is “Neither FKBP12 knockout nor addition of FK506 had an impact”. Besides, in data set [8], the “impact of addition of FK506 on inhibitory activity” value is “Neither FKBP12 knockout nor addition of FK506 had an impact”. Also, the “GI50 relative to BiS-NS and BiS-13x (less potent)” value in data set [9] is 10 fold. In [10], the “sensitivity to cell growth inhibition in 4EBP1/2 DKO MEFs compared to WT MEFs” value is on record as “a similar pattern was observed”. For the same compound, in data set [11], the “return of glucose levels to baseline after the first glucose challenge” value was “delayed”. Also, the “maximum loss in body weight” value in data set [12] is “up to 15%”. Also, the inhibition at 1 µM in data set [13] is 69%.
For `CO[C@@H]1C[C@@H]2CC[C@@H](C)[C@@](O)(O2)C(=O)C(=O)N2CCCC[C@@H]2C(=O)O[C@H]([C@H](C)C[C@H]2CC[C@H](OCCOCc3cn(CCOCCOCCOCCOCCOCCOCCOCCOCCC(=O)NCCCCn4nc(-c5ccc6oc(N)nc6c5)c5c(N)ncnc54)nn3)[C@H](OC)C2)CC(=O)[C@H](C)/C=C(\C)[C@H](O)[C@@H](OC)C(=O)[C@H](C)C[C@H](C)/C=C/C=C/C=C/1C` [RapaLink-1], in [1], the “selectivity for mTORC1 over mTORC2” value was “three- to four; also recorded: approximately four”. The “effect on p4EBP1 T37/T46” value in [2] was “equipotent”. The “effect on pS6K T389” value in data set [3] is given as “equipotent”. Further, the “effect on pAKT S473 in Myr-AKT cells” value in data set [14] is “inhibited”. For the same compound, in data set [14], the “effect on pAKT S473 in parental cells” value is listed as “inhibited”. In addition, in data set [15], the “effect on pAKT S473” value is “abolished”. In [16], the “effect on HER3 expression and phosphorylation” value was “increased”. In addition, the “sensitivity of sg4EBP1 cells compared to sgGFP cells (less sensitive)” value in data set [17] (MDA-MB-468, five days) is “three”. Besides, the concentration suppressing proliferation was 0.3 nM in data set [17] (MDA-MB-468 sg4EBP1 cells) and 0.1 nM in [17] (MDA-MB-468 sgGFP cells). The “displacement of eIF4G by 4EBP1 in the cap-binding complexes” value in data set [18] was “significant displacement”. Also, the “effect on pS6K T389 and pAKT S473” value in [19] (control (sgGFP) and sg4EBP1 cells) is “suppressed pS6K T389 and pAKT S473 effectively and equivalently”. The “effect on cyclin D1 levels” value in data set [19] (sg4EBP1 cells) is recorded as “unaffected”; in data set [19] (sgGFP cells) it was “reduced”. Moreover, in data set [20], the “effect on global protein synthesis” value was “suppressed”. The “selectivity for mTORC1” value in data set [21] is recorded as “three- to four”.
Consider `CO[C@H]1C[C@@H]2CC[C@@H](C)[C@@](O)(O2)C(=O)C(=O)N2CCCC[C@H]2C(=O)O[C@H]([C@H](C)C[C@@H]2CC[C@@H](O)[C@H](OC)C2)CC(=O)[C@H](C)/C=C(\C)[C@@H](O)[C@@H](OC)C(=O)[C@H](C)C[C@H](C)/C=C/C=C/C=C/1C` [Rapamycin], for which the “effect on pS6K T389” value in data set [3] is on record as “inhibited”. In addition, in data set [6], the “effect on pAKT S473” value is given as “increased”. Also, the “effect on AKT S473 phosphorylation” value in data set [22] is “significant inhibition”.
As to `CC(C)n1nc(-c2cc3cc(O)ccc3[nH]2)c2c(N)ncnc21` [PP242], in data set [2], the “effect on p4EBP1 T37/T46” value is listed as “inhibited”. The “effect on pAKT S473” value in data set [6] is on record as “inhibited”.
Take `CO[C@H]1C[C@@H]2CC[C@@H](C)[C@@](O)(O2)C(=O)C(=O)N2CCCC[C@H]2C(=O)O[C@H]([C@H](C)C[C@@H]2CC[C@@H](O)[C@H](OC)C2)C[C@@H](OC)[C@H](C)/C=C(\C)[C@@H](O)[C@@H](OC)/C(=N/OCc2cn(CCOCCOCCOCCOCCOCCOCCOCCOCCC(=O)NCCCCn3nc(-c4ccc5oc(N)nc5c4)c4c(N)ncnc43)nn2)[C@H](C)C[C@H](C)/C=C/C=C/C=C/1C` [RMC-4529]: the “selectivity for mTORC1 over mTORC2” value in data set [1] came out at 31 fold. Further, the IC50 in data set [2] (read-out: 4EBP1 T37/T46 IC50) amounted to 6.37 nM. In addition, the IC50 in data set [3] (read-out: S6K IC50) is 0.98 nM. In data set [14], the “effect on pAKT S473 in Myr-AKT cells” value is reported as “did not inhibit” and the “effect on pAKT S473 in parental cells” value is given as “increase”. The “reduction in potency in cells with mTOR FRB mutation (F2108L)” value in data set [23] worked out at 10 fold. Moreover, the “GI50 relative to BiS-NS and BiS-13x (less potent)” value in data set [9] was 10 fold. For the same compound, in data set [12], the “maximum loss in body weight” value was 5%. Moreover, the “interactions with kinases other than mTOR” value in data set [24] was “No interactions”.
